Test results as given in US10800772B2 (Gilead Sciences, Inc., priority 2016, dated 2020).
Read-outs that look alike come from different tables or passages of the source.

Legend:
Format in all cases: cell-based, HIV-1
[1] = tested on: HIV-IIIb (wildtype); experiment: Antiviral assay in MT4 cells, HIV-IIIb wildtype; conditions: read-out: WT EC50
Method in brief: (§1)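 MT4 cells were pre-infected for 3 h at 37 °C with HIV-IIIb (0.004 m.o.i.), then plated at 2000 cells per well with 3-fold serially diluted compound (10 concentrations, quadruplicate). After 5 days at 37 °C, CellTiter-Glo luminescence was read, and EC50 was taken as the concentration giving a 50% decrease in signal.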

[2] = tested on: HIV-IIIb IN T174I BT; experiment: Antiviral assay in MT4 cells, HIV-IIIb IN T174I BT virus (from viral breakthrough); conditions: Human immunodeficiency virus 1, IIIB, MT4, 120 h, read-out: T174I BT EC50, MT4 cells, HIV-IIIb IN T174I BT (viral breakthrough), 5 days, CellTiter-Glo
Method in brief: as §1

[3] = tested on: HIV-IIIb IN T174I DE; experiment: Antiviral assay in MT4 cells, HIV-IIIb IN T174I DE virus (from dose escalation passaging); conditions: Human immunodeficiency virus 1, IIIB, MT4, 120 h, read-out: T174I DE EC50, MT4 cells, HIV-IIIb IN T174I DE (dose escalation), 5 days, CellTiter-Glo
Method in brief: as §1

[4] = Human immunodeficiency virus 1, IIIB, MT4, 120 h

SMILES | EC50 [1, 4] [nM] | EC50 [2] [nM] | EC50 [3] [nM] | EC50 ([1]; Human immunodeficiency virus 1, 120 h, MT4 cells, HIV-IIIb wildtype, 5 days, CellTiter-Glo) [nM]
COC1CCN(c2nn(C)c3ccc(-c4nc5cc(C)c([C@H](OC(C)(C)C)C(=O)O)c(-c6ccc(Cl)cc6)c5s4)cc23)CC1 [Compound 142, (S)-2-(tert-butoxy)-2-(7-(4-chloro-phenyl)-2-(3-(4-methoxypiperidin-1-yl)-1-methyl-1H-indazol-5-yl)-5-methylbenzo[d]thiazol-6-yl) acetic acid] | 12 | 1560 | 2330 | –
Cc1cc2nc(-c3ccc4c(c3)c(N3CC5CC(C3)O5)nn4C)sc2c(-c2ccc(Cl)cc2)c1[C@H](OC(C)(C)C)C(=O)O [Compound 143, (2S)-2-(2-(3-(6-oxa-3-azabicyclo [3.1.1]heptan-3-yl)-1-methyl-1H-indazol-5-yl)-7-(4-chlorophenyl)-5-methylbenzo [d]thiazol-6-yl)-2-(tert-butoxy) acetic acid] | – | 5780 | 5610 | 27
Cc1cc2nc(-c3ccc4c(c3)c(N3CCOCC3)nn4C)sc2c(-c2ccc(Cl)cc2)c1[C@H](OC(C)(C)C)C(=O)O [Compound 144, (S)-2-(tert-butoxy)-2-(7-(4-chloro-phenyl)-5-methyl-2-(1-methyl-3-morpholino-1H-indazol-5-yl)benzo[d]thiazol-6-yl)acetic acid] | 10 | 1810 | 3270 | –
Cc1cc2nc(-c3ccc4c(c3)c(N3CCC(C5COC5)CC3)nn4C)sc2c(-c2ccc(Cl)cc2)c1[C@H](OC(C)(C)C)C(=O)O [Compound 146, (S)-2-(tert-butoxy)-2-(7-(4-chloro-phenyl)-5-methyl-2-(1-methyl-3-(4-(oxetan-3-yl)piperidin-1-yl)-1H-indazol-5-yl)benzo[d]thiazol-6-yl)acetic acid] | 31 | 1740 | 2220 | –
CC(=O)N1CC[C@@H]1CN1CCC(c2nn(C)c3ccc(-c4nc5cc(C)c([C@H](OC(C)(C)C)C(=O)O)c(-c6ccc(Cl)cc6)c5s4)cc23)CC1 [Compound 148, (S)-2-(2-(3-(1-(((R)-1-acetyl-azetidin-2-yl)methyl)piperidin-4-yl)-1-methyl-1H-indazol-5-yl)-7-(4-chloro-phenyl)-5-methylbenzo[d]thiazol-6-yl)-2-(tert-butoxy) acetic acid] | 12 | 143 | 199 | –
Cc1cc2nc(-c3ccc4c(c3)c(C3CCN(C[C@@H]5CCN5C)CC3)nn4C)sc2c(-c2ccc(Cl)cc2)c1[C@H](OC(C)(C)C)C(=O)O [Compound 149, (S)-2-(tert-butoxy)-2-(7-(4-chloro-phenyl)-5-methyl-2-(1-methyl-3-(1-(((S)-1-methyl-azetidin-2-yl)methyl)piperidin-4-yl)-1H-indazol-5-yl)benzo[d]thiazol-6-yl) acetic acid] | 11 | 80 | 98 | –
COC(=O)N1CC[C@H]1CN1CCC(c2nn(C)c3ccc(-c4nc5cc(C)c([C@H](OC(C)(C)C)C(=O)O)c(-c6ccc(Cl)cc6)c5s4)cc23)CC1 [Compound 150, (S)-2-(tert-butoxy)-2-(7-(4-chloro-phenyl)-2-(3-(1-(((S)-1-(methoxy-carbonyl)azetidin-2-yl)methyl)piperidin-4-yl)-1-methyl-1H-indazol-5-yl)-5-methyl-benzo[d]thiazol-6-yl)acetic acid] | 4 | 214 | 182 | –
CC(=O)N1CC[C@H]1CN1CCC(c2nn(C)c3ccc(-c4nc5cc(C)c([C@H](OC(C)(C)C)C(=O)O)c(-c6ccc(Cl)cc6)c5s4)cc23)CC1 [Compound 151, (S)-2-(2-(3-(1-(((S)-1-acetyl-azetidin-2-yl)methyl)piperidin-4-yl)-1-methyl-1H-indazol-5-yl)-7-(4-chloro-phenyl)-5-methylbenzo[d]thiazol-6-yl)-2-(tert-butoxy) acetic acid] | 16 | 237 | 231 | –
Cc1cc2nc(-c3ccc4c(c3)c(C3CCN(C5CN(C(=O)C6CC6)C5)CC3)nn4C)sc2c(-c2ccc(Cl)cc2)c1[C@H](OC(C)(C)C)C(=O)O [Compound 152, (S)-2-(tert-butoxy)-2-(7-(4-chloro-phenyl)-2-(3-(1-(1-(cyclopropane-carbonyl)azetidin-3-yl)piperidin-4-yl)-1-methyl-1H-indazol-5-yl)-5-methylbenzo[d]thiazol-6-yl) acetic acid] | 23 | 175 | 210 | –
COC(=O)N1CC(N2CCC(c3nn(C)c4ccc(-c5nc6cc(C)c([C@H](OC(C)(C)C)C(=O)O)c(-c7ccc(Cl)cc7)c6s5)cc34)CC2)C1 [Compound 153, (S)-2-(tert-butoxy)-2-(7-(4-chloro-phenyl)-2-(3-(1-(1-(methoxycarbonyl)azetidin-3-yl)piperidin-4-yl)-1-methyl-1H-indazol-5-yl)-5-methyl-benzo[d]thiazol-6-yl)acetic acid] | 11 | 159 | 217 | –
Cc1cc2nc(-c3ccc4c(c3)c(C3CCN(C5CC(F)(F)C5)CC3)nn4C)sc2c(-c2ccc(Cl)cc2)c1[C@H](OC(C)(C)C)C(=O)O [Compound 155, (S)-2-(tert-butoxy)-2-(7-(4-chloro-phenyl)-2-(3-(1-(3,3-difluorocyclo-butyl)piperidin-4-yl)-1-methyl-1H-indazol-5-yl)-5-methylbenzo[d]thiazol-6-yl) acetic acid] | 13 | 922 | 1920 | –
Cc1cc2nc(-c3ccc4c(c3)c(C3CCN(C(=O)[C@@H]5CCCO5)CC3)nn4C)sc2c(-c2ccc(Cl)cc2)c1[C@H](OC(C)(C)C)C(=O)O [Compound 157, (S)-2-(tert-butoxy)-2-(7-(4-chloro-phenyl)-5-methyl-2-(1-methyl-3-(1-((S)-tetrahydrofuran-2-carbonyl)piperidin-4-yl)-1H-indazol-5-yl)benzo[d]thiazol-6-yl)acetic acid] | 11 | 620 | 789 | –
Cc1cc2nc(-c3ccc4c(c3)c(C3CCN(C(=O)C5(C)CCCO5)CC3)nn4C)sc2c(-c2ccc(Cl)cc2)c1[C@H](OC(C)(C)C)C(=O)O (stereo partly drawn) [Compound 158, (2S)-2-(tert-butoxy)-2-(7-(4-chloro-phenyl)-5-methyl-2-(1-methyl-3-(1-(2-methyltetrahydro-furan-2-carbonyl)piperidin-4-yl)-1H-indazol-5-yl)benzo [d]thiazol-6-yl) acetic acid] | 11 | 1300 | 1670 | –
Cc1cc2nc(-c3ccc4c(c3)c(C3CCN(C(=O)C5CCO5)CC3)nn4C)sc2c(-c2ccc(Cl)cc2)c1[C@H](OC(C)(C)C)C(=O)O (stereo partly drawn) [Compound 159, (2S)-2-(tert-butoxy)-2-(7-(4-chloro-phenyl)-5-methyl-2-(1-methyl-3-(1-(oxetane-2-carbonyl)piperidin-4-yl)-1H-indazol-5-yl)benzo[d]thiazol-6-yl) acetic acid] | 11 | 430 | 583 | –
Cc1cc2nc(-c3ccc4c(c3)c(C3CCN(C(=O)C5(C)COC5)CC3)nn4C)sc2c(-c2ccc(Cl)cc2)c1[C@H](OC(C)(C)C)C(=O)O [Compound 160, (S)-2-(tert-butoxy)-2-(7-(4-chloro-phenyl)-5-methyl-2-(1-methyl-3-(1-(3-methyloxetane-3-carbonyl)piperidin-4-yl)-1H-indazol-5-yl)benzo[d]thiazol-6-yl)acetic acid] | 15 | 375 | 756 | –
Cc1cc2nc(-c3ccc4c(c3)c(C3CCN(C(=O)C5COC5)CC3)nn4C)sc2c(-c2ccc(Cl)cc2)c1[C@H](OC(C)(C)C)C(=O)O [Compound 161, (S)-2-(tert-butoxy)-2-(7-(4-chloro-phenyl)-5-methyl-2-(1-methyl-3-(1-(oxetane-3-carbonyl)piperidin-4-yl)-1H-indazol-5-yl)benzo[d]thiazol-6-yl)acetic acid] | 18 | 316 | 600 | –
COC(=O)N1CC[C@H](N2CCC(c3nn(C)c4ccc(-c5nc6cc(C)c([C@H](OC(C)(C)C)C(=O)O)c(-c7ccc(Cl)cc7)c6s5)cc34)CC2)C1 [Compound 162, (S)-2-(tert-butoxy)-2-(7-(4-chloro-phenyl)-2-(3-(1-((S)-1-(methoxy-carbonyl)pyrrolidin-3-yl)piperidin-4-yl)-1-methyl-1H-indazol-5-yl)-5-methylbenzo[d]thiazol-6-yl) acetic acid] | 5 | 149 | 272 | –
Cc1cc2nc(-c3ccc4c(c3)c(C3CCN([C@@H]5CCN(C)C5)CC3)nn4C)sc2c(-c2ccc(Cl)cc2)c1[C@H](OC(C)(C)C)C(=O)O [Compound 164, (S)-2-(tert-butoxy)-2-(7-(4-chloro-phenyl)-5-methyl-2-(1-methyl-3-(1-((R)-1-methyl-pyrrolidin-3-yl)piperidin-4-yl)-1H-indazol-5-yl)benzo[d]thiazol-6-yl)acetic acid] | 15 | 184 | 183 | –
COC(=O)N1CC[C@@H](N2CCC(c3nn(C)c4ccc(-c5nc6cc(C)c([C@H](OC(C)(C)C)C(=O)O)c(-c7ccc(Cl)cc7)c6s5)cc34)CC2)C1 [Compound 165, (S)-2-(tert-butoxy)-2-(7-(4-chloro-phenyl)-2-(3-(1-((R)-1-(methoxy-carbonyl)pyrrolidin-3-yl)piperidin-4-yl)-1-methyl-1H-indazol-5-yl)-5-methylbenzo[d]thiazol-6-yl) acetic acid] | 5 | 118 | 182 | –
